From patent US20240246980A1, “MODULATORS OF MAS-RELATED G-PROTEIN RECEPTOR D AND RELATED PRODUCTS AND METHODS” (Escient Pharmaceuticals, Inc., priority 2022, published 2024) come the findings set out here.

In general, pIC50 refers to the negative decadic logarithm of the IC50, by convention in mol/L.

Each structure is given as a SMILES string. pIC50: −log10 of the molar value. Where only a bound is given, the exact number is not on record here.

The assay deals with human MRGPRD (Homo sapiens, UniProt Q8TDS7). Nature of the assay: MRGPRD antagonist activity, IP-One HTRF assay in CHO cells stably expressing human MRGPRD (versus 100 μM β-Alanine agonist). It counts as cell-based. The protocol:
Chinese Hamster Ovary (CHO) cells stably expressing human MRGPRD (Eurofins, San Diego CA) were plated in a 384-well plate at 20,000 cells per well in 12 μL of Optimem (Fisher Scientific 11-058-021). Plates were kept in the incubator at 37° C. overnight. Antagonists were solubilized at a concentration of 10 mM in DMSO, and the agonists were solubilized to stock concentrations of either 50 mM in H2O (β-Alanine) or 10 mM in DMSO (all others) and then diluted in assay buffer (final concentrations of 5.7 mM Tris-HCl, 43 mM NaCl, 50 mM LiCl, pH=8). The concentration of DMSO was normalized across the plate. Antagonists were added to the plate using a Tecan D300 Digital Dispenser at nanoliter/picoliter volumes and 2 μL of agonists in assay buffer were added to each well for a final assay volume of 14 μL. Plates were covered and incubated for 1 h at 37° C. and then for 1 h at room temperature. IP-1 standards and HTRF detection reagents were added according to an IP-One-Gq Kit purchased from Cisbio (part number 62IPAPEJ) and incubated in the dark for 1 h at room temperature. Assay plates were read on either a Molecular Devices SpectraMax iD5 plate reader or a BMG ClarioStar plate reader. The HTRF ratio was calculated form the raw data and graphed using GraphPad Prism to calculate IC50 values. Data are expressed as average IC50 values and average percent antagonism calculated as a percent of the maximum efficacy response. For these studies, the variability of the data was assessed by determining the standard error of mean (SEM).
The activity ranges are denoted as follows: “+++++” denotes antagonist activity <100 nM; “++++” denotes antagonist activity between 100 and 500 nM; “+++” denotes activity between 500 and 1000 nM; “++” denotes activity between 1000 and 3000 nM; and “+” denotes activity >3000 nM.

Sequence of human MRGPRD (Q8TDS7 whole entry): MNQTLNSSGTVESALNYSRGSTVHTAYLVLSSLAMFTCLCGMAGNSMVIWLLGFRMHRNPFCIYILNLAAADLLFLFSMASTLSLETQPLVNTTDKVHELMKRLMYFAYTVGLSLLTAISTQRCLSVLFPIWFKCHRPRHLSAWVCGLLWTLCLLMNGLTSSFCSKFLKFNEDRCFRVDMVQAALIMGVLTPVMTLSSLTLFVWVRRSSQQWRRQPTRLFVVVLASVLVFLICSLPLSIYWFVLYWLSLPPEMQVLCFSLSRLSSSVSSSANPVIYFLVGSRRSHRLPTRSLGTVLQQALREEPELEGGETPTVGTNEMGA

Regarding `COc1cccc(-c2nc([C@@H]3CCCN(C(=O)NCc4ccc(N(C)C)cc4)C3)n3ccccc23)c1` [Compound 5-17], the pIC50 is above 7.00.

`COc1cccc(-c2nn([C@H]3CCCN(C(=O)Nc4ccc(N(C)C)cc4)C3)c3ncccc23)c1` [Compound 20-4] showed a pIC50 of 5.52 to 6.00.

In the case of `COc1cccc(-c2nc(C3CCCN(C(=O)Cc4ccccc4F)C3)n3ccccc23)c1` (stereo not shown) [Compound 12-1, 2-(2-fluorophenyl)-1-(3-(1-(3-methoxyphenyl)imidazo[1,5-a]pyridin-3-yl)piperidin-1-yl)ethan-1-one], the pIC50 is 6.30 to 7.00.

Turning to `COc1ccc(CNC(=O)N2CCC[C@@H](c3nc(-c4cccc(OC)c4)c4ccccn34)C2)cc1` [Compound 5-58], the pIC50 was above 7.00.

With `COc1cccc(-c2nn(C3CCCN(C(=O)Nc4ccc(N(C)C)cc4)C3)c3ncccc23)c1` (stereo not shown) [Compound 9-1, N-(4-(dimethylamino)phenyl)-3-(3-(3-methoxyphenyl)-1H-pyrazolo[3,4-b]pyridin-1-yl)piperidine-1-carboxamide], the pIC50 was above 7.00.

Consider `COc1cccc(-c2nc([C@@H]3CCCN(C(=O)Nc4ccc5c(c4)ncn5C)C3)n3ccccc23)c1` [Compound 5-51], for which the pIC50 is above 7.00.

With `COc1cccc(-c2nn([C@H]3CCCN(C(=O)Nc4cccc(N(C)C)c4)C3)c3ncccc23)c1` [Compound 20-3], the negative-log IC50 (pIC50) was 5.52 to 6.00.

In the case of `CC(=O)c1cccc(-c2nc([C@@H]3CCCN(C(=O)Nc4ccc(N(C)C)cc4)C3)n3ccccc23)c1` [Compound 10-7], the pIC50 was above 7.00.

Compound `COc1cccc(-c2nc([C@@H]3CCCN(C(=O)Nc4ccc5cccnc5c4)C3)n3ccccc23)c1` [Compound 5-40] gave a pIC50 above 7.00.

For `COc1cccc(-c2nc([C@@H]3CCCN(C(=O)NCc4nccs4)C3)n3ccccc23)c1` [Compound 5-45], the pIC50 is above 7.00.

Regarding `COc1cccc(-c2nc([C@@H]3CCCN(C(=O)Nc4ccccc4C(F)(F)F)C3)n3ccccc23)c1` [Compound 1-15], the pIC50 was 6.30 to 7.00.

In turn, `CNc1cccc(-c2nc([C@@H]3CCCN(C(=O)Nc4ccc(N(C)C)cc4)C3)n3ccccc23)c1` [Compound 10-40] gave a pIC50 of 6.00 to 6.30.

In turn, `COc1ncc(-c2nc([C@@H]3CCCN(C(=O)Nc4ccc(N(C)C)cc4)C3)n3ccccc23)cn1` [Compound 10-60] showed a pIC50 below 5.52.

For `COc1cccc(-c2nc(C3CCCN(S(=O)(=O)Cc4ccccc4F)C3)n3ccccc23)c1` (stereo not shown) [Compound 16-5], the pIC50 was below 5.52.

Compound `COc1cccc(-c2nc(C3CCCN(C(=O)c4ccc(C)cc4F)C3)n3ccccc23)c1` (stereo not shown) [Compound 12-7] had a pIC50 of 6.00 to 6.30.

`COc1cccc(-c2nc([C@@H]3CCCN(C(=O)Nc4ccccc4C(=O)N(C)C)C3)n3ccccc23)c1` [Compound 5-33] showed a pIC50 of 5.52 to 6.00.

`CCOc1ccccc1NC(=O)N1CCC[C@@H](c2nc(-c3cccc(OC)c3)c3ccccn23)C1` [Compound 5-14] had a pIC50 of 6.30 to 7.00.

In turn, `COc1cccc(-c2nc([C@@H]3CCCN(C(=O)Nc4cccc5c4OCO5)C3)n3ccccc23)c1` [Compound 5-35] had a pIC50 above 7.00.

In turn, `CCN(CC)c1ccc(NC(=O)N2CCC[C@@H](c3nc(-c4cccc(OC)c4)c4ccccn34)C2)cc1` [Compound 1-19] gave a pIC50 above 7.00.

For `COc1cccc(-c2nc([C@@H]3CCCN(C(=O)Nc4ccc(C)cc4F)C3)n3ccccc23)c1` [Compound 1-11], the pIC50 was 6.30 to 7.00.

Take `COc1cccc(-c2nc(C3CCCN(C(=O)Nc4ccc(OC)c(OC)c4)C3)n3ccccc23)c1` (stereo not shown) [Compound 4-1]: the pIC50 is 6.30 to 7.00.

Take `COc1cccc(C(=O)N2CCCC(c3nc(-c4cccc(OC)c4)c4cccc(OC)n34)C2)c1` (stereo not shown) [Compound 14-3]: the pIC50 is below 5.52.

`COc1cccc(-c2nc([C@@H]3CCCN(C(=O)Nc4cccc(C)c4)C3)n3ccccc23)c1` [Compound 1-13] had a pIC50 of 6.30 to 7.00.

In turn, `COc1cccc(-c2nc(C3CCCN(C(=O)Nc4ccccc4F)C3)n3c(C)cccc23)c1` (stereo not shown) [Compound 17-3] showed a pIC50 of 6.30 to 7.00.

For the compound `COc1cccc(-c2nc([C@@H]3CCCN(C(=O)Nc4cccc(-c5csc(C)n5)c4)C3)n3ccccc23)c1` [Compound 5-61], the pIC50 is above 7.00.

Consider `CCOCn1cc(NC(=O)N2CCC[C@@H](c3nc(-c4cccc(OC)c4)c4ccccn34)C2)cn1` [Compound 5-49], for which the pIC50 is above 7.00.

The compound `CN(C)C(=O)c1ccc(-c2nc([C@@H]3CCCN(C(=O)Nc4ccc(N(C)C)cc4)C3)n3ccccc23)cc1` [Compound 10-46] showed a pIC50 below 5.52.

Compound `COc1cccc(-c2nc([C@H]3CCN(C(=O)Nc4ccccc4F)C3)n3ccccc23)c1` [Compound 21-2] showed a pIC50 of 5.52 to 6.00.

In turn, `COc1cccc(-c2nc([C@@H]3CCCN(C(=O)Nc4ccc5c(c4)OCO5)C3)n3ccccc23)c1` [Compound 5-27] gave a pIC50 above 7.00.

`COc1cccc(-c2nc(C3CCCN(C(=O)Cc4cccc(F)c4)C3)n3ccccc23)c1` (stereo not shown) [Compound 12-4] had a pIC50 of 6.30 to 7.00.

In turn, `COc1cccc(-c2nc([C@@H]3CCCN(C(=O)Nc4onc(C)c4C)C3)n3ccccc23)c1` [Compound 5-50] showed a pIC50 above 7.00.

With `COc1cccc(-c2nc([C@@H]3CCCN(C(=O)Nc4ccc5c(c4)CCC5)C3)n3ccccc23)c1` [Compound 5-32], the pIC50 was 6.30 to 7.00.

Consider `CN(C)c1ccc(NC(=O)N2CCC[C@@H](c3nc(-c4cc5ccccc5s4)c4ccccn34)C2)cc1` [Compound 10-61], for which the pIC50 is below 5.52.

The compound `COc1cccc(-c2nc(C3CCCN(C(=O)c4ccccc4OC)C3)n3c(OC)cccc23)c1` (stereo not shown) [Compound 14-1, (3-(5-methoxy-1-(3-methoxyphenyl)imidazo[1,5-a]pyridin-3-yl)piperidin-1-yl)(2-methoxyphenyl)methanone] showed a pIC50 of 6.00 to 6.30.

With `CN(C)c1ccc(NC(=O)N2CCC[C@@H](c3nc(-c4cccc(S(C)(=O)=O)c4)c4ccccn34)C2)cc1` [Compound 10-59], the pIC50 is 5.52 to 6.00.

Turning to `COc1cccc(-c2nc(C3CCCN(C(=O)N(C)c4ccccc4)C3)n3ccccc23)c1` (stereo not shown) [Compound 5-1], the pIC50 is 5.52 to 6.00.

Consider `CN(C)c1ccc(NC(=O)N2CCC[C@@H](c3nc(-c4ccc(S(C)(=O)=O)cc4)c4ccccn34)C2)cc1` [Compound 10-35], for which the pIC50 is below 5.52.

`COc1cccc(-c2nc(C3CCCN(C(=O)c4ccc(F)cc4)C3)n3ccccc23)c1` (stereo not shown) [Compound 12-3] gave a pIC50 of 6.00 to 6.30.

As for `COc1ccc(NC(=O)N2CCC[C@H](c3nc(-c4cccc(OC)c4)c4ccccn34)C2)cc1` (stereo in doubt) [Compound 5-29], the pIC50 was 5.52 to 6.00.

With `O=C(Nc1ccccc1F)N1CCCC(c2nc(-c3ccccc3F)c3ccccn23)C1` (stereo not shown) [Compound 11-2], the pIC50 is 5.52 to 6.00.

With `COc1cccc(-c2nc([C@H]3CCCN(S(=O)(=O)c4cccc(F)c4)C3)n3ccccc23)c1` [Compound 16-10], the pIC50 was 5.52 to 6.00.

`COc1cccc(-c2nc([C@@H]3CCCN(C(=O)Nc4cnc(N(C)C)nc4)C3)n3ccccc23)c1` [Compound 5-72] gave a negative logarithm of the IC50 (pIC50) above 7.00.

`CCn1cc(CNC(=O)N2CCC[C@@H](c3nc(-c4cccc(OC)c4)c4ccccn34)C2)cn1` [Compound 5-68] showed a pIC50 above 7.00.

Turning to `COc1cccc(-c2nc([C@@H]3CCCN(C(=O)N[C@H]4CC[C@H](O)CC4)C3)n3ccccc23)c1` [Compound 5-70], the pIC50 was above 7.00.

Regarding `COc1cccc(-c2nc(C3CCCN(C(=O)Nc4ccccc4OC)C3)n3ccccc23)c1` (stereo not shown) [Compound 3-8], the pIC50 was 6.30 to 7.00.

The compound `COc1cccc(-c2nc([C@@H]3CCCN(C(=O)NCCCN(C)C)C3)n3ccccc23)c1` [Compound 1-27] had a pIC50 of 6.00 to 6.30.

`COc1cccc(-c2nc([C@@H]3CCCN(S(=O)(=O)c4cccc(F)c4)C3)n3ccccc23)c1` [Compound 16-7]: the pIC50 is 6.30 to 7.00.

Compound `COc1ccccc1-c1nc([C@H]2CCCN(C(=O)Nc3ccc(N(C)C)cc3)C2)n2ccccc12` [Compound 10-31] had a pIC50 below 5.52.

Compound `CN(C)c1ccc(NC(=O)N2CCC[C@@H](c3nc(-c4ccc5ccccc5c4)c4ccccn34)C2)cc1` [Compound 10-34] had a pIC50 of 5.52 to 6.00.

On to `CN(C)c1ccc(NC(=O)N2CCC[C@@H](c3nc(C4CCCCC4)c4ccccn34)C2)cc1` [Compound 10-45], for which the pIC50 is 6.30 to 7.00.

For the compound `COc1cccc(-c2nc(C3CCCN(C(=O)Nc4cccc(C#N)c4)C3)n3ccccc23)c1` (stereo not shown) [Compound 3-21], the pIC50 is 6.30 to 7.00.

`COc1cccc(-c2nc([C@@H]3CCCN(C(=O)Nc4cc(C)nn4C)C3)n3ccccc23)c1` [Compound 5-59] gave a pIC50 above 7.00.

`COc1cccc(-c2nc([C@@H]3CCCN(C(=O)Nc4ccc(C(F)(F)F)cc4)C3)n3ccccc23)c1` [Compound 5-23] gave a pIC50 of 6.00 to 6.30.

Take `COc1cccc(-c2nc([C@@H]3CCCN(S(=O)(=O)Cc4ccc(F)cc4)C3)n3ccccc23)c1` [Compound 16-9]: the pIC50 is above 7.00.

Regarding `CCc1ccc(-c2nc([C@@H]3CCCN(C(=O)Nc4ccc(N(C)C)cc4)C3)n3ccccc23)cc1` [Compound 10-29], the pIC50 was 6.00 to 6.30.
